According to ChEMBL document CHEMBL1201862, “PubChem BioAssay data set” (2004):
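Step 1: Grow cells in 96-well plates. Step 2: Expose to compound for 48 hours at 5 concentrations. Step 3: Interpolate endpoints linearly; if unreached, use highest concentration. Abbreviation: GI50, concentration required for 50% inhibition of growth.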 Calls of active or inactive are those of the source. Cut-off read from the data, not from the text of the source: active = GI50 up to about 1.1 µM and inactive = higher.

Experiments:
Experiment in all cases: NCI-60 cell line screen, 48 h
[1] = system: SK-MEL-5
[2] = system: SNB-75
[3] = system: LOX IMVI
[4] = system: CAKI-1
[5] = system: LXFL 529
[6] = system: RXF 393
[7] = system: 786-0
[8] = system: OVCAR-4
[9] = system: SK-OV-3
[10] = system: DMS-114
[11] = system: U-251
[12] = system: UO-31
[13] = system: NCI-H522
[14] = system: EKVX
[15] = system: OVCAR-8
[16] = system: HCT-116
[17] = system: KM-20L2
[18] = system: SN12C
[19] = system: UACC-257
[20] = system: SF-539
[21] = system: HOP-18
[22] = system: NCI-H460
[23] = system: OVCAR-5
[24] = system: ACHN
[25] = system: SF-268
[26] = system: XF498
[27] = system: HOP-62
[28] = system: HT-29
[29] = system: M14
[30] = system: SF-295
[31] = system: A549
[32] = system: Malme-3M
[33] = system: DLD-1
[34] = system: OVCAR-3
[35] = system: UACC-62
[36] = system: HL-60
[37] = system: SR
[38] = system: NCI-H226
[39] = system: HOP-92
[40] = system: KM12
[41] = system: TK-10
[42] = system: IGROV-1
[43] = system: SK-MEL-28
[44] = system: COLO 205
[45] = system: SNB-19
[46] = system: SNB-78
[47] = system: NCI-H23
[48] = system: RPMI-8226
[49] = system: MOLT-4
[50] = system: HCC 2998
[51] = system: SW-620
[52] = system: K562
[53] = system: A498
[54] = system: DMS-273
[55] = system: SK-MEL-2
[56] = system: CCRF-CEM
[57] = system: HCT-15

Question: How did the GI50 [1] turn out when NC(=O)c1c([N+](=O)[O-])cc(C(F)(F)F)cc1[N+](=O)[O-] was run?
Answer: 50000 nM (inactive)

Question: And the GI50 [2]?
Answer: > 100000 nM (inactive)

Question: And the GI50 [3]?
Answer: 51200 nM (inactive)

Question: And the GI50 [4]?
Answer: > 100000 nM (inactive)

Question: What about the GI50 [5] of the same molecule?
Answer: > 100000 nM (inactive)

Question: And the GI50 [6]?
Answer: > 100000 nM (inactive)

Question: And the GI50 [7]?
Answer: > 100000 nM (inactive)

Question: And the GI50 [8]?
Answer: 68200 nM (inactive)

Question: What about the GI50 [9] of the same molecule?
Answer: > 100000 nM (inactive)

Question: What about the GI50 [10] of the same molecule?
Answer: 26900 nM (inactive)

Question: What about the GI50 [11] of the same molecule?
Answer: > 100000 nM (inactive)

Question: And the GI50 [12]?
Answer: > 100000 nM (inactive)

Question: And the GI50 [13]?
Answer: 21500 nM (inactive)

Question: And the GI50 [14]?
Answer: > 100000 nM (inactive)

Question: What about the GI50 [15] of the same molecule?
Answer: > 100000 nM (inactive)

Question: And the GI50 [16]?
Answer: 39000 nM (inactive)

Question: And the GI50 [17]?
Answer: 33300 nM (inactive)

Question: And the GI50 [18]?
Answer: 52400 nM (inactive)

Question: And the GI50 [19]?
Answer: 27000 nM (inactive)

Question: What about the GI50 [20] of the same molecule?
Answer: 45700 nM (inactive)

Question: What about the GI50 [21] of the same molecule?
Answer: > 100000 nM (inactive)

Question: And the GI50 [22]?
Answer: 47400 nM (inactive)

Question: What about the GI50 [23] of the same molecule?
Answer: > 100000 nM (inactive)

Question: What about the GI50 [24] of the same molecule?
Answer: > 100000 nM (inactive)

Question: And the GI50 [25]?
Answer: > 100000 nM (inactive)

Question: And the GI50 [26]?
Answer: > 100000 nM (inactive)

Question: And the GI50 [27]?
Answer: > 100000 nM (inactive)

Question: And the GI50 [28]?
Answer: 41700 nM (inactive)

Question: And the GI50 [29]?
Answer: 76600 nM (inactive)

Question: What about the GI50 [30] of the same molecule?
Answer: > 100000 nM (inactive)

Question: What about the GI50 [31] of the same molecule?
Answer: 99500 nM (inactive)

Question: What about the GI50 [32] of the same molecule?
Answer: 24400 nM (inactive)

Question: And the GI50 [33]?
Answer: > 100000 nM (inactive)

Question: What about the GI50 [34] of the same molecule?
Answer: 24900 nM (inactive)

Question: And the GI50 [35]?
Answer: 35100 nM (inactive)

Question: And the GI50 [36]?
Answer: 18000 nM (inactive)

Question: And the GI50 [37]?
Answer: > 100000 nM (inactive)

Question: And the GI50 [38]?
Answer: > 100000 nM (inactive)

Question: What about the GI50 [39] of the same molecule?
Answer: > 100000 nM (inactive)

Question: What about the GI50 [40] of the same molecule?
Answer: 44000 nM (inactive)

Question: And the GI50 [41]?
Answer: > 100000 nM (inactive)

Question: What about the GI50 [42] of the same molecule?
Answer: > 100000 nM (inactive)

Question: What about the GI50 [43] of the same molecule?
Answer: > 100000 nM (inactive)

Question: And the GI50 [44]?
Answer: 26100 nM (inactive)

Question: What about the GI50 [45] of the same molecule?
Answer: > 100000 nM (inactive)

Question: And the GI50 [46]?
Answer: > 100000 nM (inactive)

Question: What about the GI50 [47] of the same molecule?
Answer: 29800 nM (inactive)

Question: What about the GI50 [48] of the same molecule?
Answer: > 100000 nM (inactive)

Question: And the GI50 [49]?
Answer: > 100000 nM (inactive)

Question: What about the GI50 [50] of the same molecule?
Answer: 38400 nM (inactive)

Question: What about the GI50 [51] of the same molecule?
Answer: 44500 nM (inactive)

Question: What about the GI50 [52] of the same molecule?
Answer: 86100 nM (inactive)

Question: What about the GI50 [53] of the same molecule?
Answer: > 100000 nM (inactive)

Question: And the GI50 [54]?
Answer: 35100 nM (inactive)

Question: What does the source list for O=C1c2cccc3cc([N+](=O)[O-])cc(c23)C(=O)N1CCNCCNCCNCCN1C(=O)c2cccc3cc([N+](=O)[O-])cc(c23)C1=O?
Answer: GI50 [1]: 152 nM (active); GI50 [2]: 10.8 nM (active); GI50 [55]: 9.95 nM (active); GI50 [4]: < 1 nM (active); GI50 [5]: 10 nM (active); GI50 [6]: 122 nM (active); GI50 [7]: < 1 nM (active); GI50 [8]: 11.7 nM (active); GI50 [9]: 21.2 nM (active); GI50 [11]: 1.98 nM (active); GI50 [12]: 33 nM (active); GI50 [13]: 116 nM (active); GI50 [14]: 112 nM (active); GI50 [15]: < 1 nM (active); GI50 [16]: < 1 nM (active); GI50 [17]: 10 nM (active); GI50 [18]: 2.51 nM (active); GI50 [19]: 31.1 nM (active); GI50 [20]: 5.47 nM (active); GI50 [21]: 149 nM (active); GI50 [22]: < 1 nM (active); GI50 [23]: 11.1 nM (active); GI50 [24]: 10 nM (active); GI50 [25]: 5.64 nM (active); GI50 [27]: 1.43 nM (active); GI50 [28]: < 1 nM (active); GI50 [56]: 1.22 nM (active); GI50 [29]: 18.8 nM (active); GI50 [30]: < 1 nM (active); GI50 [31]: < 1 nM (active); GI50 [32]: 111 nM (active); GI50 [33]: < 1 nM (active); GI50 [34]: 109 nM (active); GI50 [35]: 3.22 nM (active); GI50 [36]: 10 nM (active); GI50 [37]: 10 nM (active); GI50 [38]: 124 nM (active); GI50 [39]: 3.43 nM (active); GI50 [57]: 10 nM; GI50 [40]: < 1 nM (active); GI50 [41]: 92 nM (active); GI50 [42]: 10 nM (active); GI50 [43]: 31.1 nM (active); GI50 [44]: 10 nM (active); GI50 [45]: < 1 nM (active); GI50 [46]: 55.3 nM (active); GI50 [47]: 1.93 nM (active); GI50 [48]: 10 nM (active); GI50 [49]: < 1 nM (active); GI50 [50]: 10 nM (active); GI50 [51]: < 1 nM (active); GI50 [52]: < 1 nM (active); GI50 [53]: 12.8 nM (active); GI50 [54]: < 1 nM (active)
